From patent publication US8420634B2, “Amidine, thiourea and guanidine derivatives of 2-aminobenzothiazoles and aminobenzothiazines for their use as pharmacological agents for the treatment of neurodegenerative pathologies” (Rottapharm S.p.A., priority 2007, dated 2013)
Counter-ions that a name gives are not always drawn.

tested on: not given; experiment: not given; conditions: not given

Compound | melting point
CN/C(C)=N/C1=Nc2ccccc2CS1 (as salt: oxalate) [Example 17, N′-(4H-3,1-benzothiazin-2-yl)-N-methylacetamidine] | 110 to 113 °C (dec.)
C/C(=N\C1=Nc2ccccc2CS1)N(C)C (as salt: oxalate) [Example 18, N′-(4H-3,1-benzothiazin-2-yl)-N,N-dimethylacetamidine] | 154 to 157 °C (dec.)
CN/C(C)=N/C1=Nc2ccccc2SC1 (as salt: oxalate) [Example 21, N′-(2H-1,4-benzothiazin-3-yl)-N-methylacetamidine] | 164 to 166 °C (dec.)
C/C(=N\C1=Nc2ccccc2SC1)N(C)C (as salt: oxalate) [Example 22, N′-(2H-1,4-benzothiazin-3-yl)-N,N-dimethylacetamidine] | 120 to 122 °C (dec.)
FC(F)(F)Oc1ccc2nc(NC(=S)Nc3ccccc3)sc2c1 [Example 13, 1-Phenyl-3-[6-(trifluoromethoxy)benzothiazol-2-yl]thiourea] | 234 °C
Fc1ccc(NC(=S)Nc2nc3ccc(OC(F)(F)F)cc3s2)cc1 [Example 14, 1-(4-Fluorophenyl)3-[6-(trifluoromethoxy)benzothiazol-2-yl]thiourea] | 207 °C
CCCNC(=N)Nc1nc2ccc(OC(F)(F)F)cc2s1 [Example 16, 1-Propyl-3-[6-(trifluoromethoxy)benzothiazol-2-yl]guanidine] | 110 to 111 °C
CCNC(=S)NC1=Nc2ccccc2CS1 [Example 29, 1-(4H-3,1-benzothiazin-2-yl)-3-ethylthiourea] | 191 to 196 °C
CCCNC(=S)NC1=Nc2ccccc2CS1 [Example 30, 1-(4H-3,1-benzothiazin-2-yl)-3-propylthiourea] | 180 to 184 °C

Continued, values first:

melting point | Compound
199 to 200 °C | CCNC(=S)Nc1nc2ccc(OC(F)(F)F)cc2s1 [Example 9, 1-Ethyl-3-[6-(trifluoromethoxy)benzothiazol-2-yl]thiourea]
226 to 228 °C | CCCNC(=S)Nc1nc2ccc(OC(F)(F)F)cc2s1 [Example 10, 1-Propyl-3-[6-(trifluoromethoxy)benzothiazol-2-yl]thiourea]
242 °C | CC(C)NC(=S)Nc1nc2ccc(OC(F)(F)F)cc2s1 [Example 11, 1-Isopropyl-3-[6-(trifluoromethoxy)benzothiazol-2-yl]thiourea]
211 °C | CCCCNC(=S)Nc1nc2ccc(OC(F)(F)F)cc2s1 [Example 12, 1-Butyl-3-[6-(trifluoromethoxy)benzothiazol-2-yl]thiourea]
127 to 129 °C | CCNC(=N)Nc1nc2ccc(OC(F)(F)F)cc2s1 [Example 15, 1-Ethyl-3-[6-(trifluoromethoxy)benzothiazol-2-yl]guanidine]
169 to 172 °C | CCNC(=S)NC1=Nc2ccc(OC(F)(F)F)cc2CS1 [Example 31, 1-Ethyl-3-[6-(trifluoromethoxy)-4H-3,1-benzothiazin-2-yl]thiourea]
148 to 151 °C | CCCNC(=S)NC1=Nc2ccc(OC(F)(F)F)cc2CS1 [Example 32, 1-Propyl-3-[6-(trifluoromethoxy)-4H-3,1-benzothiazin-2-yl]thiourea]
199 to 201 °C | CCNC(=S)NC1=Nc2ccc(OC(F)(F)F)cc2SC1 [Example 33, 1-Ethyl-3-[7-(trifluoromethoxy)-2H-1,4-benzothiazin-3-yl]thiourea]
180 to 182 °C | CCCNC(=S)NC1=Nc2ccc(OC(F)(F)F)cc2SC1 [Example 34, 1-Propyl-3-(7-trifluoromethoxy-2H-1,4-benzothiazin-3-yl)thiourea]

tested on: cortical slices; experiment: in vitro ischemia (oxygen-glucose deprivation/re-oxygenation): glutamate released during re-oxygenation; assay type: cell-based; conditions: rat cortical slices, concentrations of 0.1-1 μM
Description: (§1) Said in vitro ischemia model is generally accepted as a comprehensive model for the study and selection of products with neuroprotective activity.
(§2) Male Sprague-Dawley rats (350-450 g; Charles River Italia, Calco, Italy) have been sacrificed following anaesthesia (i.p. injection of 30 mg/kg ketamine hydrochloride and 8 mg/kg xylazine hydrochloride). The brain is rapidly removed and placed in aCSF (artificial Cerebro Spinal Fluid, composition expressed in mM: 120 NaCl, 2.5 KCl, 1.3 MgCl2, 1.0 NaH2PO4, 1.5 CaCl2, 26 NaHCO3, 11 glucose, saturated with 95% O2 −5% CO2, with a final pH of 7.4, osmolarity 285-290 mOsmol). The cortex is removed and sectioned into slices 400 μm thick.
The slices are then maintained in oxygenated aCSF supplemented with 400 μM ascorbic acid for 1 hour at room temperature.
Cortical slices total weight 33.6±2.6 mg, n=10) are incubated at 37° C., in 2 ml aCSF under a flow of 95% O2/5% CO2 for a period of 30 minutes. Oxygen-glucose deprivation is then implemented for 30 minutes by incubating in aCSF where the glucose has been substituted by sucrose and the oxygen mix air flow replaced with 95% N2/5% CO2. After the period of oxygen-glucose deprivation, the slices are placed in oxygenated aCSF for 90 minutes (re-oxygenation). In the treated samples, the compound of formula I is dissolved in aCSF at the concentrations described.
(§3) Neuronal damage is assessed quantitatively by measuring the glutamate and lactate dehydrogenase (LDH) released into the aCSF during the period of re-oxygenation. In particular, glutamate is measured fluorimetrically (excitation at 366 nm; emission at 450 nm) using the conversion of NAD^+ to NADH catalysed by glutamate dehydrogenase (Eilers et al., 1999) while LDH activity is determined spectrophotometrically by measuring the reduction in absorbance at 340 nm via the oxidation of NADH to NAD^+ (Gay et al., 1968).
All experiments have been conducted using slices obtained from at least 4 different rats. Data is reported as the S.E.M. and “n” is defined as the sample number. Data for glutamate and LDH activity is expressed as nmol/mg tissue and U/mg tissue, respectively. One unit (U) of LDH activity is defined as the correspondent yielding one micromole of lactate in one minute. Statistical analyses have been conducted using ANOVA followed by post-hoc Dunnett tests (GraphPad INSTAT v3.00, GraphPad Software, San Diego, Calif., USA).

Compound | reduction in glutamate release
C/C(=N/c1nc2ccc(OC(F)(F)F)cc2s1)N(C)C [Example 5, N,N-dimethyl-N′-[6-(trifluoromethoxy)benzothiazol-2-yl]acetamidine] | remarkable reduction (a reduction in glutamic acid release and/or LDH activity to a value comprised of between 10% and 50% of that of the control sample)
CCCCNC(=S)Nc1nc2ccc(OC(F)(F)F)cc2s1 [Example 12, 1-Butyl-3-[6-(trifluoromethoxy)benzothiazol-2-yl]thiourea] | remarkable reduction (a reduction in glutamic acid release and/or LDH activity to a value comprised of between 10% and 50% of that of the control sample)
CN/C(C)=N/C1=Nc2ccccc2CS1 [Example 17, N′-(4H-3,1-benzothiazin-2-yl)-N-methylacetamidine] | remarkable reduction (a reduction in glutamic acid release and/or LDH activity to a value comprised of between 10% and 50% of that of the control sample)
C/C(=N\C1=Nc2ccccc2CS1)N(C)C [Example 18, N′-(4H-3,1-benzothiazin-2-yl)-N,N-dimethylacetamidine] | remarkable reduction (a reduction in glutamic acid release and/or LDH activity to a value comprised of between 10% and 50% of that of the control sample)
CCN(CC)/C(C)=N/C1=Nc2ccccc2CS1 [Example 19, N′-(4H-3,1-benzothiazin-2-yl)-N,N-diethylacetamidine] | remarkable reduction (a reduction in glutamic acid release and/or LDH activity to a value comprised of between 10% and 50% of that of the control sample)
CN/C(C)=N/C1=Nc2ccccc2SC1 [Example 21, N′-(2H-1,4-benzothiazin-3-yl)-N-methylacetamidine] | remarkable reduction (a reduction in glutamic acid release and/or LDH activity to a value comprised of between 10% and 50% of that of the control sample)

same assay, conditions: rat cortical slices, concentrations of 0.1-10 μM

Compound | reduction in glutamate release
CCCNC(=N)Nc1nc2ccc(OC(F)(F)F)cc2s1 [Example 16, 1-Propyl-3-[6-(trifluoromethoxy)benzothiazol-2-yl]guanidine] | remarkable reduction (a reduction in glutamic acid release and/or LDH activity to a value comprised of between 10% and 50% of that of the control sample)

tested on: cortical slices; experiment: in vitro ischemia (oxygen-glucose deprivation/re-oxygenation): LDH activity released during re-oxygenation; assay type: cell-based; conditions: rat cortical slices, concentrations of 0.1-1 μM
Description: as §1
as §2, with “thick. […]” for “thick.”
as §3
All experiments have been conducted using slices obtained from at least 4 different rats. […] Data for glutamate and LDH activity is expressed as nmol/mg tissue and U/mg tissue, respectively. […]

Compound | reduction in LDH activity
CCNC(=S)Nc1nc2ccc(OC(F)(F)F)cc2s1 [Example 9, 1-Ethyl-3-[6-(trifluoromethoxy)benzothiazol-2-yl]thiourea] | remarkable reduction (a reduction in glutamic acid release and/or LDH activity to a value comprised of between 10% and 50% of that of the control sample)
